Results: patent US20160157479A1, “ANTIFUNGAL COMPOSITION AND METHOD” (OMEX INTERNATIONAL LIMITED, priority 2013, published 2016)

What was measured:
cabbage leaf discs = experiment: Effect of composition on leaf-penetration; conditions: 0.1% vanillin
Description: 14.5 cm cabbage leaf discs were cut and placed in a petri dish and treated with a diluted composition. At the same time a second petri dish (control) was treated with the same diluted composition with no leaf present and stored in the dark for the duration of the test.
Test time periods were 1, 2, 4, 6 & 24 hours after application. The application was performed using an artist's air brush at low pressure to give a deposit of circa 2 g of spray diluted composition.
At the appropriate time period, the leaf disc was washed with methanol and the washings collected and made up to 25 mL with methanol. The appropriate control petri dish was also washed with methanol and the volume made up to 25 mL.
For each treatment a spray control was prepared by diluting 5 mL of spray liquid to 50 mL in a volumetric flask with methanol. The spray control is applied to the leaf and is used to determine the amount of vanillin applied to the leaf surface for each test.
The amount of vanillin washed from the leaf surface was subtracted from the amount washed from the petri dish control to determine how much of the vanillin has moved into the leaf sub-surface layer as a function of the formulation.

[1] = Light-fastness study (Oxynex ST photostabiliser); type: physicochemical; conditions: 0.1% vanillin, light box 5000 lux
Description: A composition without any photostabiliser was used as a base composition (no photostabiliser).
Method: Each formulation was diluted with water to 0.1% vanillin (as pure) and 5 mL was applied by pipette to a glass petri dish. The dishes were left to stand in a light box fitted with 2×40 W fluorescent daylight bulbs with an illumination intensity of 5000 lux. The dishes were extracted with methanol and made up to 25 mL in a volumetric flask after 3 and 5 days. Samples were then analysed by HPLC.

[2] = Light-fastness study, addition of ascorbic acid; type: physicochemical; conditions: 0.1% vanillin, 1500 Lux 5 hours per day
Description: The formulations used for these experiments are described in TABLE 10. Oxynex ST (5%) and Oxynex ST (5%) with ascorbic acid (1%) were added to the composition to determine the effect on photostability.
(§1) Method: Formulations were diluted with water to 0.1% vanillin and 5 mL transferred by pipette to a 100 mL crystallising dish. All dishes were placed in a light box containing two 60 cm high efficiency 24 W fluorescent bulbs housed in a canopy to provide bright, full spectrum lighting closely resembling daylight (6400 Kelvin). The dishes were covered with muslin sheets to reduce the intensity of the light to 1500 Lux on a programme of 5 hours per day. At specific time intervals the dishes were extracted and made up to volume with methanol. Samples were analysed by HPLC.

Photodecomposition study = type: physicochemical; conditions: 0.1% vanillin
Description: The following samples were prepared by diluting down the specified composition with water: • VS, vanillin solution in water @ 0.1% vanillin; • 0.4% dilution of RBEF-024 (0.1% vanillin); and • 0.4% dilution of RBEF-030 (0.1% vanillin). • 5 ml of the diluted material was pipetted into 3 pyrex crystallisation dishes; the surface was covered with muslin and the samples placed in a light box for 1, 3 and 5 days respectively with high intensity white light applied for 5 hours out of every 24 hours.
As a control, three equivalent samples were placed in crystallisation dishes which were placed in the dark (inside a cupboard).
At the end of each time period the contents of the crystallisation dishes were washed out with 4×5 mL methanol (magnetic stirrer used at each addition to dissolve any solid vanillin) and the washings transferred to a 25 mL volumetric flask and made up to volume with methanol.
As an initial control (t=0 days), 5 mL of each dilution was pipetted into a 25 mL volumetric flask and made up to volume with methanol.

[3] = Light-fastness study, ratio of Oxynex ST:ascorbic acid; type: physicochemical; conditions: 0.1% vanillin, 1500 Lux 5 hours per day
Description: The formulations used for these experiments are described in TABLE 12. Various ratios of Oxynex ST and ascorbic acid were used in the composition to determine the effect on photostability.
as §1

COc1cc(C=O)ccc1O [0.1% Vanillin Technical in water, 4-Hydroxy-3-methoxybenzaldehyde]
% Vanillin penetrating through leaf cuticle surface (cabbage leaf discs; 1 hour after application): 0.4%
% Vanillin penetrating through leaf cuticle surface (cabbage leaf discs; 2 hour after application): 2.5%
% Vanillin penetrating through leaf cuticle surface (cabbage leaf discs; 4 hour after application): 1.7%
% Vanillin penetrating through leaf cuticle surface (cabbage leaf discs; 6 hour after application): 5.0%
% Vanillin penetrating through leaf cuticle surface (cabbage leaf discs; 24 hour after application): 8.5%
Loss (%) ([1]; 3 days): 6.18%
Vanillin ([1]; 3 days): 177.65 mg/L
Loss (%) ([1]; 5 days): 8.49%
Concentration (mg/dish) ([2]; 0 days): 5.87 mg/dish
Loss (%) ([2]; 0 days): 0.00%
Concentration (mg/dish) ([2]; 1 day): 5.85 mg/dish
Loss (%) ([2]; 1 day): 0.34%
Loss (%) ([2]; 3 days): 3.92%
Concentration (mg/dish) ([2]; 7 days): 5.53 mg/dish
Loss (%) ([2]; 7 days): 5.79%
Concentration (mg/dish) ([2]; 14 days): 5.22 mg/dish
% Vanillin lost by photo-decomposition (Photodecomposition study; 0 days): 0.0%
% Vanillin lost by photo-decomposition (Photodecomposition study; light box 5 of 24 hours, 1 day): +0.08%
% Vanillin lost by photo-decomposition (Photodecomposition study; light box 5 of 24 hours, 3 day): +1.50%
% Vanillin lost by photo-decomposition (Photodecomposition study; light box 5 of 24 hours, 5 day): +2.08%
Vanillin (mg/L) 2 ([3]; 0 days): 200.48 mg/L
Vanillin mg/dish ([3]; 0 days): 5.02 mg/dish
Loss (%) ([3]; 1 day): −1.19%
Vanillin mg/dish ([3]; 1 day): 4.96 mg/dish
Loss (%) ([3]; 2 days): −0.11%
Vanillin mg/dish ([3]; 2 days): 4.96 mg/dish
Loss (%) ([3]; 3 days): −1.17%
Vanillin mg/dish ([3]; 3 days): 4.90 mg/dish
